“Also recorded” adds a separate entry of the source.
Experiments:
[1] = system: PBA induced CAMP gene expression; test: Inhibition of PBA induced CAMP gene expression by MAP kinase inhibitors in VA10 cells; format: cell-based, human; settings: 20 μM inhibitor one hour prior to 4 mM PBA, 24 hours
Method: FIG. 6B. […] CAMP mRNA levels were determined by real time RT-PCR. Individual samples were normalized to total RNA input. Results were normalized to expression in control samples where controls were given the arbitrary value of one. Normalized data is plotted as mean+SE from three independent experiments. *: P<0.05; **: P<0.01; ***: P<0.001
The effect of inhibitors for c-Jun N-terminal kinase (JNK), p38 kinase and extracellular signal-regulated kinase ½ (ERK½) on PBA induced CAMP gene expression were also investigated as shown in FIG. 6B. One hour prior to stimulation with 4 mM PBA, VA10 cells were pre incubated with 20 μM SP600125, SB203580 or U0126 to inhibit the respective kinases. After 24 hours of incubation, total RNA was isolated and analyzed by real time RT-PCR for CAMP mRNA.

[2] = system: CAMP mRNA in A497 (Human renal carcinoma cell line); test: CAMP gene expression by PBA in A497 cells; format: cell-based; settings: 4 mM, 8, 24 and 48 hours
Method: (§1) FIG. 3: Induction of CAMP gene mRNA expression by PBA. A) VA10 cells were stimulated with the indicated concentrations of PBA or solvent (Control) for 24 hours. B) VA10 cells were stimulated with 4 mM PBA or treated with solvent alone and harvested after the indicated period of time. C) A498, HT-29 and U937 cells were stimulated with 4 mM PBA or solvent only and harvested after the indicated period of time. CAMP mRNA levels were determined by real time RT-PCR. Individual samples were normalized to total RNA input. Results were normalized to expression in control samples where controls were given the arbitrary value of one. The normalized data is plotted as mean+SE from at least three independent experiments.
(§2) In order to investigate the effect of PBA on other cell lines, HT-29 (Human colonic adenocarcinoma cell line), […] (Human renal carcinoma cell line) and U937 (Human leukemic monocyte lymphoma cell line) were stimulated with 4 mM PBA for 8, 24 and 48 hours. Total RNA was isolated from the cells and CAMP mRNA expression levels analyzed by real time RT-PCR.

[3] = 528 mg/day to 1.12 g/day, 2-6 weeks, adult IBD patients; cited from earlier work
[4] = system: CAMP mRNA in U937 (Human leukemic monocyte lymphoma cell line); test: CAMP gene expression by PBA in U937 cells; format: cell-based; settings: 4 mM, 8, 24 and 48 hours
Method: as §1, §2

[5] = system: acetylation of histone H3 and H4 at the CAMP gene proximal promoter; test: Histone H3 and H4 acetylation at the CAMP gene promoter, quantitative ChIP in VA10 cells; format: cell-based, human; settings: 4 mM, 24 hours, listed as PBA
Method: FIG. 9: VA10 cells were stimulated with 4 mM of PBA or solvent alone (Control) for 24 hours. Acetylation of histone H3 and H4 was analyzed by quantitative ChIP using antibodies against the respective acetylated histones. Results were normalized to normal rabbit IgG and total input and plotted as fold precipitation over IgG. Normalized data is plotted as mean+SE from independent experiments (n=3).
The effect of PBA on acetylation of histone H3 and H4 by quantitative chromatin immunoprecipitation was assessed.

[6] = system: hBD-1 mRNA; test: hBD-1 mRNA expression in VA10 cells, real time RT-PCR; format: cell-based, human; settings: 4 mM, 24 hours, compared with CAMP induction
Method: FIG. 11: Induction of hBD-1 mRNA expression by PBA. VA10 cells were stimulated with 4 mM of PBA or solvent alone (Control) for 24 hours. hBD-1 mRNA levels were determined by real time RT-PCR, CAMP induction shown for comparison. Individual samples were normalized to total RNA input. Results were normalized to expression in control samples where controls were given the arbitrary value of one. Data is normalized to control and plotted as mean+SE from at least three independent experiments.
CAMP is not the only antimicrobial defense gene that is induced by PBA.

[7] = system: CAMP mRNA in HT-29 (Human colonic adenocarcinoma cell line); test: CAMP gene expression by PBA in HT-29 cells; format: cell-based; settings: 4 mM, 8, 24 and 48 hours
Method: as §1, §2

[8] = system: CAMP gene, encoding LL-37; test: CAMP (LL-37) mRNA expression in VA10 lung epithelial cells, real time RT-PCR; format: cell-based, human
Method: LL-37 expression in lung epithelial cells treated with different agents Lung epithelial cells (VA 10) were grown to confluency under standard conditions and the agents to be tested added at the indicated concentrations (see below). mRNA was isolated 24 hours after treatment and measured by real time reverse transcription PCR.
Six-well plates were seeded with 1.0×10^6 cells per well and grown for two days. Medium was then exchanged and different wells were left untreated, supplemented with 2 mM sodium butyrate or 2 mM sodium 4-phenylbutyrate. The cells were incubated for 48 h and total RNA was prepared using the RNEasy kit (Qiagen). Total RNA concentrations were measured using the Quant-iT RiboGreen RNA assay kit (Invitrogen). Superscript III first-strand synthesis system (Invitrogen) was used to synthesize cDNA using random primers according to the protocol of the manufacturer. […] Results were normalized to total RNA quantity, presented as relative fold induction of untreated control cells.
Total RNA was isolated from the cells and CAMP mRNA expression levels analyzed by real time RT-PCR.

[9] = system: VDR co-activator genes; test: VDR co-activator mRNA levels in VA10 cells, real time RT-PCR; format: cell-based, human; settings: 4 mM, 24 hours
Method: VA10 cells were stimulated with 4 mM of PBA or solvent alone (Control) for 24 hours. mRNA levels of the respective VDR co-activators were determined by real time RT-PCR. Individual samples were normalized to total RNA input. Results were normalized to expression in control samples where controls were given the arbitrary value of one. Data is normalized to control and plotted as mean+SE from three independent experiments.
Hypothesizing that the synergistic effect between PBA and 1,25(OH)2D3 was due to an induction of VDR co-activator genes by PBA, we analyzed the effect of PBA on mRNA levels of several known VDR co-activator genes in VA10. […] These co-activators are therefore not involved in the PBA-induced effects on gene expression.

[10] = system: CAP-18 (the rabbit homologue to LL-37); test: Shigella infected rabbits treated with glyceryl tributyrate, CAP-18 immunohistochemistry; format: in vivo; settings: oral, 47 μmol/kg twice daily for 3 days, Shigella flexneri 2a
Method: Animal model: Inbred New Zealand White rabbits of either gender weighing 1.8 to 2 kg were used for the study. The animals were individually caged in a room maintained at 22-25° C. Before inclusion in the study, health status of the rabbits was determined by physical examination, culture of stool and rectal swab specimens and fecal parasitic examination. Healthy coccidia-free rabbits that were also free of enteric pathogens (e.g. Salmonella, Shigella, Vibrio cholera) were studied. Rabbits were infected with Shigella and divided into two groups, one group was treated orally with glyceryl tributyrate and the other with saline. Expression of the CAP-18 peptide and its proform in colonic and rectal tissue specimens were analyzed in healthy rabbits, in untreated infected rabbits, in infected and healthy rabbits treated with glycerol tributyrate. For analyses of toxicity effects of glycerol tributyrate healthy rabbits were also treated with this compound.
Bacterial strain and inoculum preparation: The Shigella flexneri 2a strain was isolated from stool of a patient. The strain was positive for the Serény test and Congo red binding, reflecting invasive properties (Berkhoff, H. A. and Vinal, A. C., 1986, Avian Dis. 30, 117-121)) From this stock, bacteria were subcultured on trypticase soya agar (TSA; Becton Dickinson, Sparks, Md.) plates and cultured overnight at 37° C. […]

[11] = system: shigellosis; settings: patients with shigellosis; unit not given; cited from earlier work

N#CC(=C(/N)Sc1ccccc1N)/C(C#N)=C(\N)Sc1ccccc1N [U0126]
PBA induced CAMP gene expression in presence of inhibitor [1]: significantly reduced

O=C([O-])CCCc1ccccc1.[Na+] [sodium 4-phenylbutyrate]
CAMP mRNA expression [2]: significantly increased
safety of topical (enema) dosing [3]: None of these studies reported any adverse effect or reactions
CAMP mRNA expression [4]: significantly increased
histone H3 and H4 acetylation at the CAMP gene proximal promoter [5]: No significant differences; also recorded: No significant change
hBD-1 mRNA expression [6]: induced, although at lower level than CAMP
CAMP mRNA expression [7]: significantly increased
dose dependence of response at higher concentrations ([8]; 8 mM, earlier experiments, results not shown): ceased to be dose-dependent
LL-37 mRNA expression (fold-induction of CAMP mRNA) ([8]; VA10 cells, 2 mM, 24 hours, compared with sodium butyrate 2 mM and vitamin D3 100 nM): more effective inducer of LL-37 mRNA expression than butyrate or vitamin D
time and dose dependence of CAMP mRNA expression ([8]; VA10 cells, 4 mM over different time points, different concentrations for 24 hours): dependent on PBA dose and increased over time
mRNA levels of VDR co-activator genes [9]: None of the genes were significantly upregulated

CCCC(=O)OCC(COC(=O)CCC)OC(=O)CCC [tributyrylglycerol, glyceryl tributyrate]
CAP-18 expression in surface epithelial cells of Shigella infected rabbits [10]: counteracted; also recorded: reverted and/or prevented

CC(C)(C)C(=O)OCOC(=O)[C@@H]1N2C(=O)[C@@H](/N=C/N3CCCCCC3)[C@H]2SC1(C)C [pivmecillinam]
duration of diarrhoea (mean±SD) [11]: 3.2±1.8
